{"source": "paper PMC5879447", "about": "“Discovery of Novel Bovine Viral Diarrhea Inhibitors Using Structure-Based Virtual Screening on the Envelope Protein E2” (Frontiers in Chemistry, 2018)", "key": {"[1]": {"tested_on": "MDBK cells", "assay": "Cytotoxicity assay (cell viability, crystal violet staining)", "type": "cell-based, Bos taurus", "protocol": "(§1) MDBK cells (Bos taurus kidney, ATCC CCL-22) were purchased from ATCC and grown in Dulbecso's modified Eagle medium (DMEM) supplemented with 10% fetal bovine serum and antibiotics under 5% CO2 at 37°C. For infections, cells were cultivated in DMEM supplemented with 2% Horse serum and antibiotics under 5% CO2 at 37°C.\n(§2) Cell viability assays were performed on confluent cell cultures in 96 well plates (~15,000 cells per well). For each compound, cells were treated with serial dilutions of the compound in quadruplicates and incubated at 37°C for 3 days. Then, cell viability was measured using crystal violet staining. Briefly, cells were fixed with 10% formaldehyde, stained with crystal violet solution (20% Ethanol, 0.1% Crystal Violet), and after washing, the absorbance at 595 nm was recorded for each well in a spectrophotometer. Assays were conducted at least in duplicates, and the cytotoxic concentration 50 (CC50) was estimated by a nonlinear regression fitting of five data points as the compound concentration necessary to reduce cell viability by 50% compared to control non-treated cells."}, "[2]": {"assay": "Cytotoxicity assay (cell viability, crystal violet staining)", "type": "cell-based, Bos taurus", "conditions": "cattle (Bos taurus), MDBK cells, 3 days at 37°C, mean and SD of at least two independent experiments", "protocol": "as §1, §2"}, "[3]": {"tested_on": "BVDV", "assay": "Reporter-based assay for antiviral activity (cpBVDV/Npro GFP, flow cytometry)", "type": "cell-based, Bovine viral diarrhea virus", "conditions": "read-out: IC50 BVDV", "protocol": "Antiviral activity was evaluated in a reporter-based assay using a recombinant virus expressing GFP, cpBVDV/Npro GFP (Pascual et al., [2018]). MDBK cells were seeded onto 24 well plates, infected with cpBVDV/Npro GFP at a multiplicity of infection of 0.1 in the presence of increasing concentrations of compounds. At 48 h post-infection cells were thoroughly washed, lifted with trypsin 0.05% and fixed using 4% paraformaldehyde in PBS. The fluorescence signal was measured using a flow cytometer (CyFlow® Space, Partec) at a detection spectrum of 488 nm. Data were analyzed in the FlowJo 7.6.2 software package. The inhibitory concentrations 50 (IC50s) for the compounds tested in the assay were calculated from curves constructed by plotting the percentage of infected cells versus the concentration of compound as the compound concentration necessary to reduce the number of infected cells by 50% compared to control non-treated cells.\nFirst, we assayed selected compounds for cytotoxicity in cultured cells. […] The remainder of the compounds were evaluated for antiviral activity in a reporter-based assay using a recombinant BVDV virus carrying GFP on its genome to infect MDBK cells (Pascual et al., [2018]). Expression of GFP induced by BVDV infection was measured 2 days after infection using flow cytometry. Inhibition of BVDV infection was assessed by comparing the number of GFP positive cells in non-treated control cells and in cells treated with increasing amounts of compound."}, "[4]": {"tested_on": "MDBK cells", "parameters": "method as in Pascual et al. (2018)", "conditions": "ref Pascual et al. (2018), cited from earlier work"}, "[5]": {"tested_on": "BVDV", "parameters": "method as in Pascual et al. (2018)", "conditions": "MDBK cells infected with cpBVDV/Npro GFP; ref Pascual et al. (2018); cited from earlier work"}, "[6]": {"tested_on": "BVDV cell entry", "parameters": "method as in Pascual et al., 2018", "conditions": "previously shown; ref Pascual et al., 2018; cited from earlier work"}, "[7]": {"conditions": "MDBK cells (bovine kidney, ATCC CCL-22)"}, "[8]": {"conditions": "Bovine viral diarrhea virus isolates and strains, MDBK, 48 h"}}, "note": "Where two headings read alike, the source gives them in different places."}
{"compound": "O=C(NNC(=O)c1cc2cc(OC(F)(F)F)ccc2[nH]1)c1cccc(C(F)(F)F)c1", "note": "[Compound 6]", "values": [{"measurement": "cytotoxicity in cultured cells", "setting": "[1]; MDBK cells, compound discarded from further analysis", "result": "high toxicity"}, {"measurement": "CC50 at 3 days", "setting": "[2]; [7]", "result": "7.2 ± 1.3", "unit": "µM"}]}
{"compound": "CCOC(=O)c1ccc2nc(NC(=O)c3cccc(Cl)c3)sc2c1", "note": "[Compound 8]", "values": [{"measurement": "IC50", "setting": "[3]; [8]", "result": "20.2 ± 3.6", "unit": "µM"}, {"measurement": "cytotoxicity at 50 μM", "setting": "[1]; MDBK cells, 50 μM", "result": "no cytotoxicity was detected"}, {"measurement": "CC50 at 3 days", "setting": "[2]; [7]", "result": "> 50", "unit": "µM"}]}
{"compound": "O=C(Nc1ccc(OC(F)(F)F)cc1)c1ccco1", "note": "[Compound 16, N-(4-(trifluoromethoxy)phenyl)furan-2-carboxamide]", "values": [{"measurement": "CC50 at 3 days", "setting": "[2]; [7]", "result": "49.8 ± 1.5", "unit": "µM"}]}
{"compound": "CS/C(=N\\S(=O)(=O)c1ccc(-n2nc(C(F)(F)F)cc2-c2cccs2)cc1)N1CCCC1", "note": "[Compound 9]", "values": [{"measurement": "CC50 at 3 days", "setting": "[2]; [7]", "result": "> 50", "unit": "µM"}]}
{"compound": "Cc1cccc(Cl)c1NC(=N)NC(=N)N", "note": "[Compound 5]", "values": [{"measurement": "CC50 at 3 days", "setting": "[2]; [7]", "result": "> 50", "unit": "µM"}]}
{"compound": "COc1ccccc1NC(=O)Cc1nnc(SCC(=O)Nc2cc(Cl)ccc2C)n1C", "note": "[Compound 10]", "values": [{"measurement": "CC50 at 3 days", "setting": "[2]; [7]", "result": "> 50", "unit": "µM"}]}
{"compound": "O=C(OCCO)c1cccc2c1-c1ccccc1C2=O", "note": "[Compound 13]", "values": [{"measurement": "CC50 at 3 days", "setting": "[2]; [7]", "result": "61.5 ± 1.4", "unit": "µM"}]}
{"compound": "N=C(N)Nc1nc2ccccc2[nH]1", "note": "[Compound 12, 2-Guanidinobenzimidazole]", "values": [{"measurement": "IC50", "setting": "[3]; [8]", "result": "44.4 ± 11.5", "unit": "µM"}, {"measurement": "CC50 at 3 days", "setting": "[2]; [7]", "result": "> 50", "unit": "µM"}]}
{"compound": "C[C@@H](Sc1nnc(-c2cccnc2)n1N)C(=O)Nc1cccc(C(F)(F)F)c1", "note": "[Compound 4]", "values": [{"measurement": "IC50", "setting": "[3]; [8]", "result": "30.1 ± 2.9", "unit": "µM"}, {"measurement": "cytotoxicity at 50 μM", "setting": "[1]; MDBK cells, 50 μM", "result": "no cytotoxicity was detected"}, {"measurement": "CC50 at 3 days", "setting": "[2]; [7]", "result": "> 50", "unit": "µM"}]}
{"compound": "4-chloro-N-(isoxazol-5-yl)benzamide [Compound 15]", "values": [{"measurement": "CC50", "setting": "[1]", "result": "> 50", "unit": "µM"}]}
{"compound": "NNC(=O)c1ccccc1NC(=O)c1ccccc1", "note": "[Compound 3]", "values": [{"measurement": "CC50 at 3 days", "setting": "[2]", "result": "> 50", "unit": "µM"}]}
{"compound": "(E)-2-(4-(dimethylamino)benzylidene)-N-(4-(trifluoromethyl)phenyl)hydrazinecarbothioamide [Compound 11]", "values": [{"measurement": "IC50", "setting": "[3]; MDBK cells infected with cpBVDV/Npro GFP, MOI 0.1, 48 h post-infection, mean and SD of at least two independent experiments, NA = assayed but not active", "result": "23.9 ± 7.9", "unit": "µM"}, {"measurement": "CC50", "setting": "[1]", "result": "> 50", "unit": "µM"}, {"measurement": "cytotoxicity at 50 μM", "setting": "[1]", "result": "no cytotoxicity was detected"}]}
{"compound": "Cc1cc(NC(=O)CCC(=O)O)no1", "note": "[Compound 14, 4-((5-methylisoxazol-3-yl)amino)-4-oxobutanoic acid]", "values": [{"measurement": "CC50 at 3 days", "setting": "[2]; [7]", "result": "> 50", "unit": "µM"}]}
{"compound": "COc1ccc(C(=O)Nc2cc(-c3ccccc3)sc2C(N)=O)cc1OC", "note": "[PTC12]", "values": [{"measurement": "cytotoxicity at 50 μM", "setting": "[4]", "result": "no cytotoxicity was detected"}, {"measurement": "CC50", "setting": "[4]", "result": "89.5 ± 1.1", "unit": "µM"}, {"measurement": "IC50", "setting": "[5]", "result": "0.3 ± 0.1", "unit": "µM"}, {"measurement": "block of BVDV cell entry", "setting": "[6]", "result": "specifically block BVDV cell entry"}]}
{"compound": "c1ccc(CN2CCN(c3cccc4[nH]cnc34)CC2)cc1", "note": "[Compound 1]", "values": [{"measurement": "CC50 at 3 days", "setting": "[2]; [7]", "result": "> 50", "unit": "µM"}]}
{"compound": "C1=C(c2nc3ccccc3o2)CCN1Cc1ncc[nH]1", "note": "[Compound 2]", "values": [{"measurement": "IC50", "setting": "[3]; [8]", "result": "44.3 ± 10.3", "unit": "µM"}, {"measurement": "CC50 at 3 days", "setting": "[2]; [7]", "result": "> 50", "unit": "µM"}]}
{"compound": "OCCCc1nc2ccccc2[nH]1", "note": "[BI03]", "values": [{"measurement": "cytotoxicity at 50 μM", "setting": "[4]", "result": "no cytotoxicity was detected"}, {"measurement": "CC50", "setting": "[4]", "result": "> 200", "unit": "µM"}, {"measurement": "IC50", "setting": "[5]", "result": "17.6 ± 6.4", "unit": "µM"}, {"measurement": "block of BVDV cell entry", "setting": "[6]", "result": "specifically block BVDV cell entry"}]}
{"compound": "Cc1ccc(CNC(=N)NC(=N)N)cc1", "note": "[Compound 17]", "values": [{"measurement": "CC50 at 3 days", "setting": "[2]; [7]", "result": "> 50", "unit": "µM"}]}
{"compound": "O=C(NCc1ccc2c(c1)OCO2)Oc1ccccc1", "note": "[Compound 7]", "values": [{"measurement": "CC50 at 3 days", "setting": "[2]", "result": "> 50", "unit": "µM"}]}
